Laboratory results as given in patent US6984634B2, “Bile-acid conjugates for providing sustained systemic concentrations of drugs” (XenoPort, Inc., priority 2000, dated 2006).
Like-named read-outs stand apart in the source and are kept apart here.

Tests used:
IBAT transporter [1] = target: T1, IBAT transporter (Homo sapiens, UniProt Q12908); experiment: Inhibition of radiolabeled taurocholate uptake in IBAT-expressing CHO cells; assay type: cell-based; conditions: radiolabeled competition assay in IBAT-expressing CHO cells, taurocholate 5 μM
T1 sequence (Q12908 1-348): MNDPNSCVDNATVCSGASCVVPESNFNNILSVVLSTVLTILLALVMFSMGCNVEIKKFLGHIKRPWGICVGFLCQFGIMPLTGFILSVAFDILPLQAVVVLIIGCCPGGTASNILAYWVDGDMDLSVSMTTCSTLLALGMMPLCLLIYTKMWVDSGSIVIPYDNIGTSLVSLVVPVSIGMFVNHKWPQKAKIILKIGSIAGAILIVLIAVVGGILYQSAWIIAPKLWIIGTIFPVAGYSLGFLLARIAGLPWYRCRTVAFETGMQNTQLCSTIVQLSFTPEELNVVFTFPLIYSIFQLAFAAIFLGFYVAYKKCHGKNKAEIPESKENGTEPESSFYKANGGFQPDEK
Method: (§1) (a) Inhibition of Radiolabeled Taurocholate Uptake
(§2) CHO cells transfected with the IBAT or LBAT transporter were seeded into 96-well microtiter plates at 100,000 cells/well in 100 μL DMEM containing 10% serum, glutamine and Penstrep. After overnight incubation the media was removed and test compound (25 μL) added at 2× the final desired concentration. Tritiated taurocholate (50,000 CPM/well) was diluted with cold substrate to a final concentration of 5 μM and 25 μL/well of this mixture was added to the plate. After incubating for 1 h at room temperature the solution was removed and the plate washed 4× with PBS at 4° C. 200 μL/well of scintillant is added and the plate then read in a Wallac microbeta counter. The inhibition data is processed by standard methods to calculate an inhibition constant K1 for the test compound.

IBAT transporter [2] = target: T1, IBAT transporter; experiment: Electrogenic transport in Xenopus oocytes expressing IBAT; assay type: cell-based; conditions: for % Max. (GDC): relative to glycodeoxycholate
From the text: (b) Analysis of Electrogenic Transport in Xenopus Oocytes
RNA preparation: Human IBAT Transporter cDNAs were subcloned into a modified pGEM plasmid that contains 5′ and 3′ untranslated sequences from the Xenopus β-actin gene. These sequences increase RNA stability and protein expression. Plasmid cDNA was linearized and used as template for in vitro transcription (Epicentre Technologies transcription kit, 4:1 methylated:non-methylated GTP).
Xenopus oocyte isolation. Xenopus laevis frogs were anesthetized by immersion in Tricaine ([…] in deionized water) for 15 min. Oocytes were removed and digested in frog ringer solution (90 mM NaCl, 2 mM KCl, 1 mM MgCl2, 10 mM NaHEPES, pH 7.45, no CaCl2) with 1 mg/mL collagenase (Worthington Type 3) for 80-100 min with shaking. The oocytes were washed 6 times, and the buffer changed to frog ringer solution containing CaCl2 (1.8 mM). Remaining follicle cells were removed if necessary. Cells were incubated at 16° C., and each oocyte injected with […] RNA in […] solution.
Electrophysiology measurements. Transport currents were measured 2-14 days after injection, using a standard two-electrode electrophysiology set-up (Geneclamp 500 amplifier, Digidata 1320/PCLAMP software and ADInstruments hardware and software were used for signal acquisition). Electrodes ([…]) were microfabricated using a Sutter Instrument puller and filled with 3M KCl. The bath was directly grounded (transporter currents were less than 0.3 μA). Bath flow was controlled by an automated perfusion system (ALA Scientific Instruments, solenoid valves).
For transporter pharmacology, oocytes were clamped at −60 to −90 mV, and continuous current measurements acquired using PowerLab Software and an ADInstruments digitizer. Current signals were lowpass filtered at 20 Hz and acquired at 4-8 Hz. All bath and drug-containing solutions were frog ringers solution containing CaCl2. Drugs were applied for 10-30 seconds until the induced current reached a new steady-state level, followed by a control solution until baseline currents returned to levels that preceded drug application. The difference current (baseline subtracted from peak current during drug application) reflected the net movement of charge resulting from electrogenic transport and was directly proportional to tranport rate. Recordings were made from a single oocyte for up to 60 min, enabling 30-40 separate compounds to be tested per oocyte. […] To compare results between oocytes expressing different levels of transport activity, a saturating concentration of glycodeoxycholate (300 μM) was used as a common reference to normalize results from test compounds. Using this normalization procedure Vmax (i.e. maximal induced current) for different compounds tested on different oocytes could be compared.

LBAT transporter = target: T2, LBAT transporter (Homo sapiens, UniProt Q14973); experiment: Inhibition of radiolabeled taurocholate uptake in LBAT-expressing CHO cells; assay type: cell-based; conditions: radiolabeled competition assay in LBAT-expressing CHO cells, taurocholate 5 μM
T2 sequence (Q14973 1-349): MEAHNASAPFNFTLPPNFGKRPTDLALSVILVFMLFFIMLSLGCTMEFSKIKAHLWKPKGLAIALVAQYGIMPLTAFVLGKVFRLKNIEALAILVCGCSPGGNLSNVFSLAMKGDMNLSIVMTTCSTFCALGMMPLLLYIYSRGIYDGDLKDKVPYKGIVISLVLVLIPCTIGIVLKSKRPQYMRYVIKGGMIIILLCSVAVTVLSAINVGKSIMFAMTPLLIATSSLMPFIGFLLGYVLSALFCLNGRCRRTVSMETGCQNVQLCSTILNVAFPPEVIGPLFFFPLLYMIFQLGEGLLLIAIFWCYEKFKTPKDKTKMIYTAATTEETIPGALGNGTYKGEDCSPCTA
Method: as §1, §2

rPEPT1 [3] = target: T3, rPEPT1 (Rattus norvegicus, UniProt P51574); experiment: Inhibition of radiolabeled Gly-Sar uptake in rPEPT1-expressing CHO cells; assay type: cell-based
T3 construct: expressed in transfected cells; host or cells: CHO cells
T3 sequence (P51574 1-710): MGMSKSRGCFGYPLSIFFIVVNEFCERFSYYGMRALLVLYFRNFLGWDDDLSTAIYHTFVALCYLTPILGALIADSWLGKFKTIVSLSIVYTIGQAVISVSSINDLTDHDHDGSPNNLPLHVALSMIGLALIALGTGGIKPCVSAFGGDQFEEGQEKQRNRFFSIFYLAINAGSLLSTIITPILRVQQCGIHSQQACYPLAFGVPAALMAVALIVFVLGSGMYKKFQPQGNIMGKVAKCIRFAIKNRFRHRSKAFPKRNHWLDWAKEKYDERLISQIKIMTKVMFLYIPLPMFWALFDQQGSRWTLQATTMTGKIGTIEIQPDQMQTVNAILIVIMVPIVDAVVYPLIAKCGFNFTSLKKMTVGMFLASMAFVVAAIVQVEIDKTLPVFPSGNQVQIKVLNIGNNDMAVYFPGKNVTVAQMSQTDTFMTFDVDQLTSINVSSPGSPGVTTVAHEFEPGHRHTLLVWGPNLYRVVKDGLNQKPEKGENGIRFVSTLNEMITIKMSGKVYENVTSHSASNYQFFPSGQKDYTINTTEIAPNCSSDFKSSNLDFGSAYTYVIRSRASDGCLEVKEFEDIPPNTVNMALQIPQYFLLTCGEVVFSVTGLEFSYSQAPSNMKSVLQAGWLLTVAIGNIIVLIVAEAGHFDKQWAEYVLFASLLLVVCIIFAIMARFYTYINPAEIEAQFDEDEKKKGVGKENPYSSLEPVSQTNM
Method: (§3) Rat and human PEPT1 and PEPT2 expressing CHO cell lines were prepared as described in PCT Application WO01/20331. Gabapentin-containing dipeptides were evaluated for interaction with the peptide transporters using a radiolabeled substrate uptake assay in a competitive inhibition format, as described in PCT Application WO01/20331. Transport-induced currents were also measured in Xenopus oocytes transfected with rat and human PEPT1 and PEPT2.

rPEPT1 [4] = target: T3, rPEPT1; experiment: Transport-induced currents in Xenopus oocytes expressing rPEPT1; assay type: cell-based; conditions: relative to Gly-Sar, test compound 1 mM
Method: as §3

rPEPT2 [5] = target: T4, rPEPT2 (Rattus norvegicus, UniProt Q63424); experiment: Transport-induced currents in Xenopus oocytes expressing rPEPT2; assay type: cell-based; conditions: relative to Gly-Sar, test compound 1 mM
T4 construct: expressed in transfected cells; host or cells: Xenopus oocytes
T4 sequence (Q63424 1-729): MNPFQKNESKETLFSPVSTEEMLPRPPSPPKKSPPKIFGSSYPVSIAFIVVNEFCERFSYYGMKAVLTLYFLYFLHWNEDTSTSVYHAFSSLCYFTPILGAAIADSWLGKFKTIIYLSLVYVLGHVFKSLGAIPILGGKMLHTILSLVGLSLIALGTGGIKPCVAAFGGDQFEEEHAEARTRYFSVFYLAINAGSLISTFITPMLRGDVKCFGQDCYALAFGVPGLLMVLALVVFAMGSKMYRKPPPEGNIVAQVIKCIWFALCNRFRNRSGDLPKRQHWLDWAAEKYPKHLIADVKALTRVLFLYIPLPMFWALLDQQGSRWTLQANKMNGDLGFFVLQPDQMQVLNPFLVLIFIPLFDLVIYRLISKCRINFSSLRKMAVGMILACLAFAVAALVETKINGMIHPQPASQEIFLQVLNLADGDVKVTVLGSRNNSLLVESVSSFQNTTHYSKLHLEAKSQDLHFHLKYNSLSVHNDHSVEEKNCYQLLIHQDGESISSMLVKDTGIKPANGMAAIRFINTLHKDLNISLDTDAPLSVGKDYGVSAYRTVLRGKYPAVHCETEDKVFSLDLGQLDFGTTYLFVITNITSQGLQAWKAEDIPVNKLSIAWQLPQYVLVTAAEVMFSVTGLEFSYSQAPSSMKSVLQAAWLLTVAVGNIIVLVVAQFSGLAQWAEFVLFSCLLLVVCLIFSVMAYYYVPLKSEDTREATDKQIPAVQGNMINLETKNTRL
Method: as §3

[6] = Pharmacokinetics in rats, Gabapentin in plasma after oral administration; conditions: male, Sprague-Dawley, rat, 25 mg/kg
Method: The pharmacokinetics of the prodrug Cholyl-Phe-Gabapentin (9g) were examined in rats. Three groups of four male Sprague-Dawley rats (approx 200 g) with jugular cannulae each received one of the following treatments: A) a single bolus intravenous injection of Gabapentin (25 mg/kg, as a solution in water); B) a single oral dose of Gabapentin (25 mg/kg, as a solution in water) administered by oral gavage; C) a single oral dose of (9g) (103.5 mg/kg, as a solution in water) administered by oral gavage. Animals were fasted overnight prior to dosing and until 4 hours post-dosing. Serial blood samples were obtained over 24 hours following dosing and blood was processed for plasma by centrifugation. Plasma samples were stored at −80° C. until analyzed.
Concentrations of (9g) or (2) in plasma samples were determined by LC/MS/MS as described above. Plasma (50 μL) was precipitated by addition of […] of methanol and supernatent was injected directly onto the LC/MS/MS system.

rPEPT2 [7] = target: T4, rPEPT2; experiment: Inhibition of radiolabeled Gly-Sar uptake in rPEPT2-expressing CHO cells; assay type: cell-based
Method: as §3

SMILES: CC(CCC(=O)NC(Cc1ccccc1)C(=O)NCC1(CC(=O)O)CCCCC1)C1CCC2C3C(O)CC4CC(O)CCC4(C)C3CCC12C (centres unmarked) [UDC-Phe-Gabapentin (9p), Ursodeoxycholyl-Phe-Gabapentin]
- IC50 (IBAT transporter [1]): 27 µM
- EC50 (IBAT transporter [2]): 18 µM
- % Max. (GDC) (IBAT transporter [2]): 27%
- IC50 (LBAT transporter): 0.7 µM

SMILES: C[C@H](CCC(=O)NCC(=O)NCC1(CC(=O)O)CCCCC1)[C@H]1CC[C@H]2[C@@H]3[C@H](O)C[C@@H]4C[C@H](O)CC[C@]4(C)[C@H]3C[C@H](O)[C@]12C [Cholyl-Gly-Gabapentin (9a), Cholyl-Gly-Gabapentin]
- IC50 (IBAT transporter [1]): 66 µM
- EC50 (IBAT transporter [2]): 22 µM
- IC50 (LBAT transporter): 64 µM

SMILES: NCC(=O)NCC1(CC(=O)O)CCCCC1 [Gly-Gabapentin]
- IC50 (rPEPT1 [3]; radiolabeled competition assay in rPEPT1-expressing CHO cells, read-out: IC50): 320 µM
- % Max. (Gly-Sar) (rPEPT1 [4]): 76%

SMILES: CC(CCC(=O)NC(Cc1ccc(O)cc1)C(=O)NCC1(CC(=O)O)CCCCC1)C1CCC2C3C(O)CC4CC(O)CCC4(C)C3CC(O)C12C (centres unmarked) [Cholyl-Tyr-Gabapentin (9h), Cholyl-Tyr-Gabapentin]
- IC50 (IBAT transporter [1]): 52 µM
- EC50 (IBAT transporter [2]): 160 µM
- % Max. (GDC) (IBAT transporter [2]): 13%
- IC50 (LBAT transporter): 15 µM

SMILES: NC(Cc1ccccc1)C(=O)NCC1(CC(=O)O)CCCCC1 (centres unmarked) [Phe-Gabapentin]
- IC50 (rPEPT1 [3]): 56 µM
- % Max. (Gly-Sar) (rPEPT1 [4]): 52%
- % Max. (Gly-Sar) (rPEPT2 [5]): 77%

SMILES: NCC1(CC(=O)O)CCCCC1 [Gabapentin, gabapentin]
- bioavailability ([6]; oral): 87 ± 18%
- Tmax ([6]; po): 1.3 ± 0.5 h
- half-life ([6]; po): 3 ± 1.3 h

SMILES: NC(Cc1ccc(O)cc1)C(=O)NCC1(CC(=O)O)CCCCC1 (centres unmarked) [Tyr-Gabapentin]
- IC50 (rPEPT1 [3]): 130 µM
- % Max. (Gly-Sar) (rPEPT1 [4]): 22%
- IC50 (rPEPT2 [7]): 4 µM
- % Max. (Gly-Sar) (rPEPT2 [5]): 73%
